The record followed here is ChEMBL document CHEMBL1150399, “Evaluation of novel hyphodermin derivatives as glycogen phosphorylase a inhibitors” (Bioorg Med Chem, 2008).

pIC50: −log10 of the molar value. Calls of active or inactive are those of the source. The rule behind the calls is not given here.

Test [1] has as its target T1, Glycogen phosphorylase, muscle form (Oryctolagus cuniculus) (UniProt P00489).
T1 sequence (whole entry): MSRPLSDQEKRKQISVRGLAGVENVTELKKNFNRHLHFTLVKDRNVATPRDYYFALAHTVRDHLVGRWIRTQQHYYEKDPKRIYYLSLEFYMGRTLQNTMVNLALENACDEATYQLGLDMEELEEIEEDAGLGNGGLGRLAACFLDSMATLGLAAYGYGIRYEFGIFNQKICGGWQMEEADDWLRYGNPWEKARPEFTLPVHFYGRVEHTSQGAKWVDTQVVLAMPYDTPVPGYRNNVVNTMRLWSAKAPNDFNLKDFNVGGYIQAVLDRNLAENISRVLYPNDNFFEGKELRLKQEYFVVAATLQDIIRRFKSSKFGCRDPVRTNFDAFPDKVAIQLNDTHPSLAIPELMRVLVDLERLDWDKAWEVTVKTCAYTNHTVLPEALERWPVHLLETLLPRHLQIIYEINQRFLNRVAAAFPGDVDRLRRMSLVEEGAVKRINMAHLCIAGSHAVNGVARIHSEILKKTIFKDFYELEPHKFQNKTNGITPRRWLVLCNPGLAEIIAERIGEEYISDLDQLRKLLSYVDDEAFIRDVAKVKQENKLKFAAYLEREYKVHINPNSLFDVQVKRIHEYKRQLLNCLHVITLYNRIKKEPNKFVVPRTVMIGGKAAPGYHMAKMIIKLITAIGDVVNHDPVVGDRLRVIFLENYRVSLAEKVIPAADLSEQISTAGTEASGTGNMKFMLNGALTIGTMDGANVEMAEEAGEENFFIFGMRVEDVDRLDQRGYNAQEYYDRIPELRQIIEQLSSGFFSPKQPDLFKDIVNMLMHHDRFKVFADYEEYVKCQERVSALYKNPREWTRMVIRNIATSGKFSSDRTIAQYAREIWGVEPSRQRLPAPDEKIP
The experiment in a line: Inhibition of rabbit muscle glycogen phosphorylase assessed as release of phosphate from glucose 1 phosphate at 0.222 to 22 mM.

For test [2], the target named is T2, Glycogen phosphorylase, muscle form (Oryctolagus cuniculus, UniProt P00489).
T2 sequence (P00489 whole entry): T1 sequence (whole entry)
The experiment in a line: Inhibition of rabbit muscle glycogen phosphorylase assessed as release of phosphate from glucose 1 phosphate.

The target of test [3] is T1, Glycogen phosphorylase, muscle form (Oryctolagus cuniculus). The experiment in a line: Inhibition of rabbit glycogen phosphorylase assessed as release of phosphate from glucose 1 phosphate at 22 mM.
Test [4] shares this target. The experiment in a line: Inhibition of rabbit glycogen phosphorylase assessed as release of phosphate from glucose 1 phosphate at <=1.4 to 3 mM.
Test [5] shares this target. The experiment in a line: Inhibition of rabbit glycogen phosphorylase assessed as release of phosphate from glucose 1 phosphate at 3 mM.

On to `O=C1OC(=O)c2c1ccc1c2C(=O)CCC1`, for which, in test [1], the outcome was inactive.

For `O=C(O)c1ccc2c3c1C(=O)N(Cc1ccccc1)C3=CCC2`, the pIC50 in test [2] is 2.96. The inhibition in test [3] came out at 46%.

As to `CCN(CC)C(=O)c1c(C(=O)O)ccc2c1C(=O)CCC2`, in test [1], the outcome was inactive.

Take `COC(=O)c1ccc2c(c1C(=O)OC)C(=O)C=CC2(C)C`: the outcome in test [1] was inactive.

For `CC1(C)c2ccc3c(c2C(=O)[C@@H]2O[C@@H]21)[C@H](O)OC3=O` (racemic), the result in test [1] and in test [4] was inactive.

Take `COC(=O)c1ccc2c(c1C(=O)OC)C(=O)CCC2(C)C`: the result in test [1] was inactive.

Take `COC(=O)c1c(C(=O)O)ccc2c1C(=O)CCC2`: the result in test [1] was inactive.

On to `CO[C@@H]1OC(=O)c2ccc3c(c21)C(=O)[C@@H]1O[C@@H]1C3(C)C` (racemic), for which the result in test [1] and in test [4] was inactive.

As to `O=C(O)c1ccc2c(c1C(=O)N1CCOCC1)C(=O)CCC2`, the result in test [1] was inactive.

In the case of `CC(C)OC(=O)c1c(C(=O)O)ccc2c1C(=O)CCC2`, the outcome in test [1] was inactive.

On to `COC(=O)c1ccc2c(c1C(=O)OC)C(=O)[C@@H]1O[C@@H]1C2(C)C` (racemic), for which, in test [1], the outcome was inactive.

Take `CC1(C)CCC(=O)c2c1ccc(C(=O)O)c2C(=O)O`: the outcome in test [1] was inactive.

On to `O=C(O)c1ccc2c3c1C(=O)N(c1ccccc1)C3(O)CCC2` (stereo not drawn), for which, in test [1], the outcome was inactive.

`COC(=O)c1ccc2c(c1C(=O)OC)C(=O)C(Br)CC2(C)C` (stereo not drawn): in test [1], the outcome was inactive.

In the case of `O=C(O)c1ccc2c3c1C(=O)N(c1ccccc1)C3=CCC2`, in test [2], the pIC50 was 3.10. Further, the inhibition in test [3] was 46%.

On to `COC(=O)c1ccc2c(c1C(=O)OC)C(=O)CCC2`, for which the outcome in test [1] was inactive.

As to `CC1(C)CCC(=O)c2c1ccc1c2C(O)OC1=O` (stereo not drawn), the result in test [1] and in test [4] was inactive.

On to `CCCCCSC(=O)c1c(C(=O)O)ccc2c1C(=O)CCC2`, for which the pIC50 in test [2] was 2.89. In test [3], the inhibition is 55%.

On to `O=C(O)c1ccc2c(c1C(=O)Nc1ccccc1)C(=O)CCC2`, for which the result in test [1] was inactive.

On to `COC1OC(=O)c2ccc3c(c21)C(=O)C=CC3(C)C` (stereo not drawn), for which, in test [5], the inhibition was 15%.

Turning to `O=C(O)c1ccc2c(c1C(=O)O)C(=O)CCC2`, the outcome in test [1] was inactive.

Take `O=C(O)c1ccc2c3c1C(=O)N(Cc1ccccc1)C3(O)CCC2` (stereo not drawn): in test [2], the pIC50 is 2.92. Further, the inhibition in test [3] was found to be 65%.

`O=C(O)c1ccc2c(c1C(=O)NCc1ccccc1)C(=O)CCC2`: the pIC50 in test [2] is 1.93. For the same compound, in test [3], the inhibition came out at 89%.

As to `CC1(C)C=CC(=O)c2c1ccc1c2C(O)OC1=O` (stereo not drawn), the outcome in test [1] was inactive.

Consider `CC1(C)C=CC(=O)c2c1ccc(C(=O)O)c2C(=O)O`, for which, in test [1], the result was inactive.
